Reference: US20230052403A1, “MIXTURES COMPRISING A SOLID CARRIER COMPRISING AN UREASE INHIBITOR AND A FURTHER SOLID CARRIER COMPRISING A NITRIFICATION INHIBITOR” (BASF SE, priority 2020, published 2023)
Read-outs that look alike come from different tables or passages of the source.

Tested on: urease
Experimental: The urea-stabilizing effect detected as the volatile NH3 losses from soil surface applied urea:
176 g air dried soil is filled into 500 mL laboratory bottle, which is then be watered with de-ionized water up to 50% of its water holding capacity and incubated at room temperature (about 21° C.) for 24 h.
Urea granules are evenly distributed on the soil in each bottle. Each granule is treated with 5 μL of the respective products, containg the compositions and mixtures of the invention in the appropriate concentrations. N amount applied was 80 mg per bottle.
NH3 free air blows constantly at a rate of about 4 L per min. through the bottle which bubbles through a scrubber solution which is periodically renewed and analyzed for NH4^+ with an autoanalyzer.

Question: How did the “reduction of NH3—N losses (UI effect), in words” value (from here on “reduction of NH3—N losses”) (Piammon, UI and DMPP on the same granules) turn out when `CCCCNP(N)(N)=S` [NBPT, N-(n-butyl)thiophosphoric acid triamide] was run?
Answer: The value was “Nearly no reduction of NH3—N losses”.

Question: And the “stability of the urease inhibitor, in words” value (UI and DMPP on the same Piammon granules)?
Answer: Its value is “destroyed by DMPP”.

Question: What about the “stability of the urease inhibitor, in words” value (UI and DMPP on the same urea granules) of the same compound?
Answer: Its value is “destroyed by DMPP”.

Question: And the “reduction of NH3—N losses” value (UI applied on Piammon granules only as well as mixed with DMPSA-treated AS granules)?
Answer: The value was “Significant reduction of NH3—N losses”.

Question: What about the “reduction of NH3—N losses” value (UI applied on urea granules only and mixed with DMPP-treated AS granules) of the same compound?
Answer: Its value is “Significant reduction of NH3—N losses”.

Question: What about the “reduction of NH3—N losses” value (UI applied on urea granules only and mixed with DMPP-treated urea granules) of the same compound?
Answer: The value was “Significant reduction of NH3—N losses”.

Question: And the “reduction of NH3—N losses” value (UI applied on urea granules only as well as mixed with DMPSA-treated urea granules)?
Answer: The value was “Significant reduction of NH3—N losses”.

Question: What about the “reduction of NH3—N losses” value (urea, UI and DMPP on the same urea granules) of the same compound?
Answer: Its value is “No reduction of NH3—N losses”.
